Test results from PubChem BioAssay (NCI).
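These data come from cells grown in 96-well plates and exposed to compound for 48 hours at five concentrations. GI50: concentration for 50% inhibition of growth. TGI: total growth inhibition.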

What was measured:
Test in all cases: NCI anticancer screen, dose series, 48 h
RPMI-8226 leukemia = system: RPMI-8226 leukemia
TK-10 renal = system: TK-10 renal
MDA-MB-231 breast = system: MDA-MB-231 breast
SNB-75 CNS = system: SNB-75 CNS
SF-268 CNS = system: SF-268 CNS
LOX IMVI melanoma = system: LOX IMVI melanoma
SK-MEL-2 melanoma = system: SK-MEL-2 melanoma
NCI/ADR-RES ovarian = system: NCI/ADR-RES ovarian
HS 578T breast = system: HS 578T breast
MDA-MB-435 = system: MDA-MB-435
HOP-62 NSCLC = system: HOP-62 NSCLC
A498 renal = system: A498 renal
K-562 leukemia = system: K-562 leukemia
SR leukemia = system: SR leukemia
OVCAR-5 ovarian = system: OVCAR-5 ovarian
HOP-92 NSCLC = system: HOP-92 NSCLC
OVCAR-4 ovarian = system: OVCAR-4 ovarian
A549 NSCLC = system: A549 NSCLC
CCRF-CEM leukemia = system: CCRF-CEM leukemia
CAKI-1 renal = system: CAKI-1 renal
SK-OV-3 ovarian = system: SK-OV-3 ovarian
DU-145 prostate = system: DU-145 prostate
T-47D breast = system: T-47D breast
EKVX NSCLC = system: EKVX NSCLC
UACC-257 melanoma = system: UACC-257 melanoma
NCI-H226 lung = system: NCI-H226 lung
ACHN renal = system: ACHN renal
MALME-3M melanoma = system: MALME-3M melanoma
U251 CNS = system: U251 CNS
HL-60(TB) leukemia = system: HL-60(TB) leukemia
NCI-H460 lung = system: NCI-H460 lung
UACC-62 melanoma = system: UACC-62 melanoma
KM12 colon = system: KM12 colon
SF-539 CNS = system: SF-539 CNS
HCT-116 colon = system: HCT-116 colon
SNB-19 CNS = system: SNB-19 CNS
BT-549 breast = system: BT-549 breast
SW-620 colon = system: SW-620 colon
SK-MEL-28 melanoma = system: SK-MEL-28 melanoma
786-0 renal = system: 786-0 renal
HCC-2998 colon = system: HCC-2998 colon
MOLT-4 leukemia = system: MOLT-4 leukemia
RXF 393 renal = system: RXF 393 renal
OVCAR-8 ovarian = system: OVCAR-8 ovarian
HT29 colon = system: HT29 colon
UO-31 renal = system: UO-31 renal
MCF7 breast = system: MCF7 breast
M14 melanoma = system: M14 melanoma
HCT-15 colon = system: HCT-15 colon
SN12C renal = system: SN12C renal
NCI-H23 lung = system: NCI-H23 lung
PC-3 prostate = system: PC-3 prostate
SF-295 CNS = system: SF-295 CNS
IGROV1 ovarian = system: IGROV1 ovarian
COLO 205 colon = system: COLO 205 colon
NCI-H522 lung = system: NCI-H522 lung
SK-MEL-5 melanoma = system: SK-MEL-5 melanoma

For `COc1cc(/C=C/C(=O)c2ccc(C)cc2)ccc1Oc1nc(NCCO)nc(N2CCOCC2)n1`, the GI50 (RPMI-8226 leukemia) was 1720 nM, the TGI (RPMI-8226 leukemia) was 6.02 µM and the GI50 (TK-10 renal) was greater than 100000 nM. It also gave a TGI (TK-10 renal) greater than 100 µM, a GI50 (MDA-MB-231 breast) of 2.98 µM and a TGI (MDA-MB-231 breast) greater than 100 µM. It also gave a GI50 (SNB-75 CNS) greater than 100 µM, a TGI (SNB-75 CNS) greater than 100 µM and a GI50 (SF-268 CNS) of 2.9 µM. The TGI (SF-268 CNS) was greater than 100 µM, the GI50 (LOX IMVI melanoma) was 430 nM and the TGI (LOX IMVI melanoma) was 1.5 µM. The GI50 (SK-MEL-2 melanoma) was 8.17 µM, the TGI (SK-MEL-2 melanoma) was greater than 100 µM and the GI50 (NCI/ADR-RES ovarian) was 2080 nM. The TGI (NCI/ADR-RES ovarian) was 4.57 µM, the GI50 (HS 578T breast) was 4.6 µM and the TGI (HS 578T breast) was greater than 100 µM. It also gave a GI50 (MDA-MB-435) of 3.31 µM, a TGI (MDA-MB-435) greater than 100 µM and a GI50 (HOP-62 NSCLC) of 16.6 µM. It also gave a TGI (HOP-62 NSCLC) greater than 100 µM, a GI50 (A498 renal) greater than 100000 nM and a TGI (A498 renal) greater than 100 µM. It also gave a GI50 (K-562 leukemia) of 1530 nM, a TGI (K-562 leukemia) greater than 100 µM and a GI50 (SR leukemia) of 1060 nM. For the same compound, the TGI (SR leukemia) was 7.16 µM, the GI50 (OVCAR-5 ovarian) was 3.22 µM and the TGI (OVCAR-5 ovarian) was greater than 100 µM. The GI50 (HOP-92 NSCLC) was 8.4 µM, the TGI (HOP-92 NSCLC) was greater than 100 µM and the GI50 (OVCAR-4 ovarian) was 3.92 µM. It also gave a TGI (OVCAR-4 ovarian) greater than 100 µM, a GI50 (A549 NSCLC) of 9.47 µM and a TGI (A549 NSCLC) greater than 100 µM. For the same compound, the GI50 (CCRF-CEM leukemia) was 2710 nM, the TGI (CCRF-CEM leukemia) was greater than 100 µM and the GI50 (CAKI-1 renal) was 5.02 µM. It also gave a TGI (CAKI-1 renal) greater than 100 µM, a GI50 (SK-OV-3 ovarian) of 23 µM and a TGI (SK-OV-3 ovarian) greater than 100 µM. The GI50 (DU-145 prostate) was 3.79 µM, the TGI (DU-145 prostate) was greater than 100 µM and the GI50 (T-47D breast) was 2980 nM. It also gave a TGI (T-47D breast) greater than 100 µM, a GI50 (EKVX NSCLC) of 3.9 µM and a TGI (EKVX NSCLC) greater than 100 µM. It also gave a GI50 (UACC-257 melanoma) of 3.98 µM, a TGI (UACC-257 melanoma) greater than 100 µM and a GI50 (NCI-H226 lung) of 6.28 µM. For the same compound, the TGI (NCI-H226 lung) was greater than 100 µM.
Compound `CC(=O)/C(N=Nc1ccc2oc(=O)ccc2c1)=C(\C)O` has a GI50 (RPMI-8226 leukemia) of 1890 nM, a TGI (RPMI-8226 leukemia) of 11.4 µM and a GI50 (TK-10 renal) of 2350 nM. The TGI (TK-10 renal) was 12.7 µM, the GI50 (MDA-MB-231 breast) was 4.77 µM and the TGI (MDA-MB-231 breast) was 18.1 µM. It also gave a GI50 (ACHN renal) of 553 nM, a TGI (ACHN renal) of 11.9 µM and a GI50 (MALME-3M melanoma) of 3000 nM. The TGI (MALME-3M melanoma) was 13.6 µM, the GI50 (U251 CNS) was 2770 nM and the TGI (U251 CNS) was 12.5 µM. For the same compound, the GI50 (SNB-75 CNS) was 5 µM, the TGI (SNB-75 CNS) was 18.6 µM and the GI50 (HL-60(TB) leukemia) was 1120 nM. For the same compound, the TGI (HL-60(TB) leukemia) was 9.15 µM, the GI50 (NCI-H460 lung) was 2110 nM and the TGI (NCI-H460 lung) was 12.1 µM. The GI50 (UACC-62 melanoma) was 2640 nM, the TGI (UACC-62 melanoma) was 12.2 µM and the GI50 (SF-268 CNS) was 5.14 µM. For the same compound, the TGI (SF-268 CNS) was 21.1 µM, the GI50 (KM12 colon) was 3.36 µM and the TGI (KM12 colon) was 13.7 µM. It also gave a GI50 (LOX IMVI melanoma) of 2920 nM, a TGI (LOX IMVI melanoma) of 12.4 µM and a GI50 (SF-539 CNS) of 4.11 µM. The TGI (SF-539 CNS) was 14.1 µM, the GI50 (HCT-116 colon) was 2230 nM and the TGI (HCT-116 colon) was 12 µM. For the same compound, the GI50 (SNB-19 CNS) was 3.39 µM, the TGI (SNB-19 CNS) was 15 µM and the GI50 (NCI/ADR-RES ovarian) was 290 nM. It also gave a TGI (NCI/ADR-RES ovarian) of 13.2 µM, a GI50 (BT-549 breast) of 3.12 µM and a TGI (BT-549 breast) of 8.52 µM. For the same compound, the GI50 (SW-620 colon) was 3.15 µM, the TGI (SW-620 colon) was 13.7 µM and the GI50 (HS 578T breast) was 3.64 µM. It also gave a TGI (HS 578T breast) of 19 µM, a GI50 (MDA-MB-435) of 3.88 µM and a TGI (MDA-MB-435) of 15.5 µM. For the same compound, the GI50 (HOP-62 NSCLC) was 3.62 µM, the TGI (HOP-62 NSCLC) was 16.3 µM and the GI50 (SK-MEL-28 melanoma) was 4.53 µM. The TGI (SK-MEL-28 melanoma) was 16.4 µM, the GI50 (786-0 renal) was 5.31 µM and the TGI (786-0 renal) was 17.4 µM. For the same compound, the GI50 (A498 renal) was 2340 nM, the TGI (A498 renal) was 10.4 µM and the GI50 (HCC-2998 colon) was 3.99 µM. For the same compound, the TGI (HCC-2998 colon) was 15.7 µM, the GI50 (MOLT-4 leukemia) was 2660 nM and the TGI (MOLT-4 leukemia) was 12.7 µM. For the same compound, the GI50 (K-562 leukemia) was 528 nM, the TGI (K-562 leukemia) was 17 µM and the GI50 (SR leukemia) was 1670 nM. For the same compound, the TGI (SR leukemia) was 7.73 µM, the GI50 (OVCAR-5 ovarian) was 5.04 µM and the TGI (OVCAR-5 ovarian) was 18.4 µM. For the same compound, the GI50 (RXF 393 renal) was 2990 nM, the TGI (RXF 393 renal) was 16.3 µM and the GI50 (HOP-92 NSCLC) was 2.46 µM. The TGI (HOP-92 NSCLC) was 7.43 µM, the GI50 (OVCAR-4 ovarian) was 3.81 µM and the TGI (OVCAR-4 ovarian) was 18.7 µM. For the same compound, the GI50 (A549 NSCLC) was 3.2 µM, the TGI (A549 NSCLC) was 13.3 µM and the GI50 (CCRF-CEM leukemia) was 1650 nM. For the same compound, the TGI (CCRF-CEM leukemia) was 13.4 µM, the GI50 (CAKI-1 renal) was 2.16 µM and the TGI (CAKI-1 renal) was 14.6 µM. The GI50 (OVCAR-8 ovarian) was 2720 nM, the TGI (OVCAR-8 ovarian) was 13.6 µM and the GI50 (HT29 colon) was 2960 nM. For the same compound, the TGI (HT29 colon) was 12.7 µM, the GI50 (UO-31 renal) was 355 nM and the TGI (UO-31 renal) was 11.8 µM. The GI50 (MCF7 breast) was 2490 nM, the TGI (MCF7 breast) was 13 µM and the GI50 (M14 melanoma) was 2770 nM. It also gave a TGI (M14 melanoma) of 15.7 µM, a GI50 (SK-OV-3 ovarian) of 4.31 µM and a TGI (SK-OV-3 ovarian) of 15.1 µM. For the same compound, the GI50 (HCT-15 colon) was 495 nM, the TGI (HCT-15 colon) was 13.7 µM and the GI50 (SN12C renal) was 2580 nM. For the same compound, the TGI (SN12C renal) was 14.7 µM, the GI50 (NCI-H23 lung) was 3.37 µM and the TGI (NCI-H23 lung) was 15.8 µM. The GI50 (PC-3 prostate) was 2730 nM, the TGI (PC-3 prostate) was 12.3 µM and the GI50 (DU-145 prostate) was 4.71 µM. The TGI (DU-145 prostate) was 19 µM, the GI50 (SF-295 CNS) was 2220 nM and the TGI (SF-295 CNS) was 12.7 µM. For the same compound, the GI50 (T-47D breast) was 1840 nM, the TGI (T-47D breast) was 9.19 µM and the GI50 (IGROV1 ovarian) was 2930 nM. For the same compound, the TGI (IGROV1 ovarian) was 16.3 µM, the GI50 (COLO 205 colon) was 1760 nM and the TGI (COLO 205 colon) was 3.39 µM. The GI50 (NCI-H522 lung) was 2120 nM, the TGI (NCI-H522 lung) was 10.8 µM and the GI50 (EKVX NSCLC) was 2.72 µM. It also gave a TGI (EKVX NSCLC) of 15.1 µM, a GI50 (UACC-257 melanoma) of 3.36 µM and a TGI (UACC-257 melanoma) of 14.8 µM. It also gave a GI50 (NCI-H226 lung) of 2.48 µM, a TGI (NCI-H226 lung) of 15.2 µM and a GI50 (SK-MEL-5 melanoma) of 2090 nM. It also gave a TGI (SK-MEL-5 melanoma) of 4.92 µM.
